Measurements published in ChEMBL document CHEMBL6153135, “Rational Design of a Potent, Selective, and Metabolically Stable CDK9 Inhibitor to Counteract Osimertinib Resistance through Mcl-1 Suppression and Enhanced BRD4 Co-Targeting” (J Med Chem, 2025).
Active and inactive are the calls of the source. The rule behind the calls is not given here.

How the values were obtained:
[1] = test system: NCI-H1975; test: Antitumor activity against human NCI-H1975 cells xenografted in BALB-c nude mouse at 30 mg/kg, po administered on every two days relative to control; assay type: functional; settings: NCI-H1975, 48 h, read-out: TGI
[2] = Toxicity in BALB-c nude mouse xenografted with human NCI-H1975 cells assessed as pathological damage in spleen at 15 mg/kg, iv administered on every two days by H and E staining based analysis; assay type: organism-based; settings: in vivo
[3] = Metabolic stability in mouse liver microsomes assessed as clearance measured for 5 to 60 mins by LC-MS/MS analysis; assay type: ADME, Microsome; settings: time 5-60 min, read-out: CLH
[4] = test system: Osimertinib-resistant NCI-H1975 cell; test: Induction of apoptosis in human Osimertinib-resistant NCI-H1975 cells assessed as viable cells at 0.5 uM incubated for 16 hrs by Annexin V-FITC/PI staining based flow cytometry (reference value: 89.4 %); assay type: functional; settings: read-out: Activity
[5] = test system: Lung adenocarcinoma organoid; test: Anti-tumor activity against Osimertinib-resistant patient (#0243)-derived human Lung adenocarcinoma organoid assessed as inhibition of cell viability measured after 96 hrs relative to control; assay type: functional, Neoplasm
[6] = Metabolic stability in pig liver microsomes assessed as half life measured for 5 to 60 mins by LC-MS/MS analysis; assay type: ADME, Sus scrofa, Microsome; settings: time 5-60 min
[7] = Half life in BALB/c mouse at 2 mg/kg, iv; assay type: ADME, organism-based; settings: in vivo
[8] = biological target: CDK3/Cyclin E (Homo sapiens) (UniProt P24864+Q00526); test: Inhibition of CDK3/Cyclin E1 (unknown origin) at 100 nM preincubated for 10 mins followed by substrate/ATP measured after 60 mins by ADP-Glo assay relative to control; assay type: protein-complex assay; settings: time 70.0 min
[9] = test system: Osimertinib-resistant HCC827 cell; test: Inhibition of homologous recombination repair in human Osimertinib-resistant HCC827 cells by KEGG analysis; assay type: functional, cell-based
[10] = Half life in Sprague-Dawley rat at 20 mg/kg, po; assay type: ADME, organism-based; settings: in vivo
[11] = Downregulation of c-Myc level in human Osimertinib-resistant HCC827 cells at 100 nM incubated for 12 hrs in presence of JQ1 by Western blot analysis relative to control; assay type: functional, Osimertinib-resistant HCC827 cell
[12] = test system: Osimertinib-resistant NCI-H1975 cell; test: Selectivity ratio of IC50 for anti-proliferative activity against human Osimertinib-resistant NCI-H1975 cells to IC50 for anti-proliferative activity against human Osimertinib-resistant NCI-H1975 cells in presence of JQ1; assay type: functional
[13] = test system: Osimertinib-resistant NCI-H1975 cell; test: Anti-proliferative activity against human Osimertinib-resistant NCI-H1975 cells assessed as cell inhibition measured after 72 hrs in presence of 500 nM JQ1 by MTT assay; assay type: functional, cell-based
[14] = test system: Lung adenocarcinoma organoid; test: Anti-tumor activity against Osimertinib-resistant patient (#0243)-derived human Lung adenocarcinoma organoid assessed as inhibition of cell viability measured after 96 hrs; assay type: functional, tissue-based; settings: Neoplasm
[15] = Apparent volume of distribution in Sprague-Dawley rat at 20 mg/kg, po; assay type: ADME, organism-based; settings: in vivo
[16] = Clearance in Sprague-Dawley rat at 20 mg/kg, po; assay type: ADME, organism-based; settings: in vivo
[17] = test system: Osimertinib-resistant HCC827 cell; test: Inhibition of colony formation in human Osimertinib-resistant HCC827 cells at 12.5 nM measured after 14 days in presence of JQ1 by crystal violet staining based analysis; assay type: functional; settings: time 14.0 day
[18] = Clearance in BALB/c mouse at 2 mg/kg, iv; assay type: ADME, organism-based; settings: in vivo
[19] = test system: Lung adenocarcinoma organoid; test: Anti-tumor activity against Osimertinib-resistant patient (#0416)-derived human Lung adenocarcinoma organoid assessed as inhibition of cell viability measured after 96 hrs relative to control; assay type: functional, Neoplasm
[20] = Selectivity ratio of IC50 for anti-proliferative activity against human NCI-H1975 cells to IC50 for anti-proliferative activity against human NCI-H1975 cells in presence of JQ1; assay type: functional
[21] = test system: Lung adenocarcinoma organoid; test: Anti-tumor activity against patient (#2514)-derived human Lung adenocarcinoma organoid assessed as inhibition of cell viability measured after 96 hrs; assay type: functional, tissue-based; settings: Neoplasm
[22] = Drug concentration in plasma of BALB-c nude mouse xenografted with human NCI-H1975 cells at 15 mg/kg, iv measured after 30 mins by LC-MS/MS analysis; assay type: ADME, organism-based
[23] = test system: Osimertinib-resistant NCI-H1975 cell; test: Induction of apoptosis in human Osimertinib-resistant NCI-H1975 cells assessed as viable cells at 2 uM incubated for 16 hrs by Annexin V-FITC/PI staining based flow cytometry (reference value: 89.4 %); assay type: functional; settings: read-out: Activity
[24] = biological target: Cyclin-dependent kinase 2/cyclin E1 (Homo sapiens) (UniProt P24864+P24941); test: Inhibition of CDK2/cyclin E1 (unknown origin) at 100 nM preincubated for 10 mins followed by substrate/ATP measured after 60 mins by ADP-Glo assay relative to control; assay type: protein-complex assay; settings: time 70.0 min
[25] = Apparent volume of distribution in BALB/c mouse at 2 mg/kg, iv; assay type: ADME, organism-based; settings: in vivo, read-out: Vz
[26] = Metabolic stability in rat liver microsomes assessed as clearance measured for 5 to 60 mins by LC-MS/MS analysis; assay type: ADME, Microsome; settings: time 5-60 min, read-out: CLH
[27] = Toxicity in BALB-c nude mouse xenografted with human NCI-H1975 cells assessed as pathological damage in heart at 15 mg/kg, iv administered on every two days by H and E staining based analysis; assay type: organism-based; settings: in vivo
[28] = Apparent volume of distribution in Sprague-Dawley rat at 2 mg/kg, iv; assay type: ADME, organism-based; settings: in vivo, read-out: Vz
[29] = test system: Lewis lung carcinoma cell line; test: Anti-proliferative activity against Lewis lung carcinoma cells assessed as cell inhibition measured after 72 hrs by MTT assay; assay type: functional, cell-based; settings: Mus musculus
[30] = biological target: Cyclin-dependent kinase 5/CDK5 activator 1 (Homo sapiens) (UniProt Q00535+Q15078); test: Inhibition of CDK5/p35NCK (unknown origin) at 100 nM preincubated for 10 mins followed by substrate/ATP measured after 60 mins by ADP-Glo assay relative to control; assay type: protein-complex assay; settings: time 70.0 min
[31] = Metabolic stability in pig liver microsomes assessed as clearance measured for 5 to 60 mins by LC-MS/MS analysis; assay type: ADME, Sus scrofa, Microsome; settings: time 5-60 min, read-out: CLH
[32] = test system: HCC827; test: Selectivity ratio of IC50 for anti-proliferative activity against human HCC827 cells to IC50 for anti-proliferative activity against human HCC827 cells in presence of JQ1; assay type: functional
[33] = biological target: CDK6/cyclin D1 (Homo sapiens) (UniProt P24385+Q00534); test: Inhibition of CDK6/Cyclin D1(unknown origin) at 100 nM preincubated for 10 mins followed by substrate/ATP measured after 60 mins by ADP-Glo assay relative to control; assay type: protein-complex assay; settings: time 70.0 min
[34] = Tmax in BALB/c mouse at 15 mg/kg, po; assay type: ADME, organism-based; settings: in vivo

Sequence of CDK3/Cyclin E (Homo sapiens) (P24864 whole entry, looked up): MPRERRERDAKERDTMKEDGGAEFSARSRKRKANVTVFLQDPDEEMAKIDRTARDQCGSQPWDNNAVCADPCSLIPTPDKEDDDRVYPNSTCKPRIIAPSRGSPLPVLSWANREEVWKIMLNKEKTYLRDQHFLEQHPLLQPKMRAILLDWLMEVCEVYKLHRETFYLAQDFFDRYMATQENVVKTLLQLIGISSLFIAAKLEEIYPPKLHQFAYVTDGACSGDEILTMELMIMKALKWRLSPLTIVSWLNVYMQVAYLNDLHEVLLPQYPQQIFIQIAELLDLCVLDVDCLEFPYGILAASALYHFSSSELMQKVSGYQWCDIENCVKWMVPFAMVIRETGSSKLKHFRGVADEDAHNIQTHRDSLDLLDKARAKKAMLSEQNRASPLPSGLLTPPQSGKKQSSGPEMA
Sequence of CDK3/Cyclin E (Homo sapiens) (Q00526 whole entry, looked up): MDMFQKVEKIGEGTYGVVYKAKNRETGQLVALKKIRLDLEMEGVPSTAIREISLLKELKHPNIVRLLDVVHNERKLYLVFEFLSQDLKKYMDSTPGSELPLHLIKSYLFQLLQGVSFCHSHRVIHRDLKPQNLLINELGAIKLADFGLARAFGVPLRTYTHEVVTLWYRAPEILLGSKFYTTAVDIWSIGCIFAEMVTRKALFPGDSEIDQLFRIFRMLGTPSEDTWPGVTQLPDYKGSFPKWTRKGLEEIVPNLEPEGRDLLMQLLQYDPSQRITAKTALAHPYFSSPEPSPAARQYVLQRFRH
Sequence of Cyclin-dependent kinase 5/CDK5 activator 1 (Homo sapiens) (Q00535 whole entry): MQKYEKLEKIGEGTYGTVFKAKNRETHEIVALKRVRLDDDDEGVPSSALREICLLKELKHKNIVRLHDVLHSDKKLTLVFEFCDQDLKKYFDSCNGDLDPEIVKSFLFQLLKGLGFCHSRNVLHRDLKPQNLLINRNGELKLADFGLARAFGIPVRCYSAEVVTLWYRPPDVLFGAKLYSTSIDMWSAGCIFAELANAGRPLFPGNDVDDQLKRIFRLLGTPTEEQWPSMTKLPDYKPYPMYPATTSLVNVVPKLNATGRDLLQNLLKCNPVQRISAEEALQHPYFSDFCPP
Sequence of Cyclin-dependent kinase 5/CDK5 activator 1 (Homo sapiens) (Q15078 99-307 partner limits assumed): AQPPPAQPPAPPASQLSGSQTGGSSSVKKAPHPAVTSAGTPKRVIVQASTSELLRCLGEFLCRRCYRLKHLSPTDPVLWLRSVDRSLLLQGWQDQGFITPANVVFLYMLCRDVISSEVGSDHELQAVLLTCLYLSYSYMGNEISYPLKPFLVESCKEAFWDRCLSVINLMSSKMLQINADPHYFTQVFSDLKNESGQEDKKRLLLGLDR

microsomal CLint [3]: 21.6 µL/min/mg
half-life [6]: 0.655 h
half-life [7]: 4.2 h
inhibition [8]: 9.68%
half-life [10]: 6.7 h
IC50 [13]: 4.3 nM
IC50 [14]: < 10 nM
Vz [15]: 30 L/kg
CL/F [16]: 63.3 mL/min/kg
clearance [18]: 83.3 mL/min/kg
IC50 [21]: < 50 nM
concentration at 0.5 h [22]: 2450 ng/mL
inhibition [24]: 50.2%
Vd [25]: 30.7 L/kg
microsomal CLint [26]: 38.4 µL/min/mg
Vd [28]: 1.9 L/kg
IC50 [29]: 170 nM
inhibition [30]: 7.24%
microsomal CLint [31]: 35.3 µL/min/mg
inhibition [33]: 33.1%
Tmax [34]: 0.56 h
Compound: CC(=O)N1CCC(NC(=O)c2ccc3cc2OCCCCCCOc2cc(ccc2F)-c2nc(ncc2F)N3)CC1
inhibition in vivo at 30 mg/kg [1]: 52.5%
Activity [2]: Non-toxic
viability at 0.5 µM [4]: 63.1%
Imax [5]: >98%
inhibition [9]: Active
Activity [11]: 100%
Ratio IC50 [12]: 10
inhibition [17]: Active
Imax [19]: >98%
Ratio IC50 [20]: 10
viability at 2 µM [23]: 51%
Activity [27]: Non-toxic
Ratio IC50 [32]: 10
